Measured values reported in DBAASP.
Converted amounts (≈) assume the structure as drawn. “And” between values parts separate entries of the source, which are not always exact repeats. Equal values may be shown once. One block for each molecule: values may come before it.

Key:
Assay in all cases: ≥ marks a high value that may be exact or a test limit, other limits are often not marked, values filed in µg/mL are converted to µM
[1] = test system: Bacillus subtilis ATCC 6633
[2] = test system: Bacillus subtilis
[3] = test system: Enterococcus faecalis ATCC 19433
[4] = test system: Enterococcus faecium ATCC 19434
[5] = test system: Enterococcus faecium NTCC 12697
[6] = test system: Escherichia coli ATCC 25922
[7] = test system: Escherichia coli ATCC 8739
[8] = test system: Escherichia coli W160-37
[9] = test system: Klebsiella pneumoniae ATCC 13883
[10] = test system: Klebsiella pneumoniae ATCC 43816
[11] = test system: Proteus mirabilis CCUG 26767
[12] = test system: Pseudomonas aeruginosa ATCC 27853
[13] = test system: Pseudomonas aeruginosa ATCC 9027
[14] = test system: Salmonella enterica subsp. enterica serovar Typhimurium LT2
[15] = test system: Staphylococcus aureus ATCC 29213
[16] = test system: Staphylococcus aureus ATCC 8530
[17] = test system: Staphylococcus aureus NCTC 10788
[18] = test system: Staphylococcus aureus NCTC 12493
[19] = test system: Bacillus subtilis 168
[20] = test system: Candida glabrata CG196/98IDE
[21] = test system: Candida krusei CK802/97
[22] = test system: Candida parapsilosis Z150/119/IDE99
[23] = test system: Escherichia coli B
[24] = test system: Pseudomonas aeruginosa
[25] = test system: Staphylococcus aureus
[26] = test system: Acinetobacter baumannii
[27] = test system: Bacillus subtilis PCI 219
[28] = test system: Bifidobacterium adolescentis
[29] = test system: Botrytis cinerea
[30] = test system: Candida albicans ATCC 10231
[31] = test system: Citrobacter koseri
[32] = test system: Enterococcus faecalis LS-101
[33] = test system: Enterococcus faecalis
[34] = test system: Enterococcus faecium EFMY-28
[35] = test system: Enterococcus faecium
[36] = test system: Escherichia coli ATCC 11775
[37] = test system: Escherichia coli BL21
[38] = test system: Escherichia coli JM109
[39] = test system: Escherichia coli NIHJ JC-2
[40] = test system: Klebsiella pneumoniae CCRC 10694
[41] = test system: Klebsiella pneumoniae
[42] = test system: Lactobacillus delbrueckii subsp. bulgaricus
[43] = test system: Salmonella enterica
[44] = test system: Salmonella typhimurium CCRC 12947
[45] = test system: Shigella flexneri EW-10
[46] = test system: Shigella sonnei EW-33
[47] = test system: Staphylococcus aureus 1840
[48] = test system: Staphylococcus aureus ATCC 12600
[49] = test system: Staphylococcus aureus CCRC 12652
[50] = test system: Staphylococcus aureus CCRC 15211
[51] = test system: Staphylococcus aureus FDA 209P
[52] = test system: Staphylococcus epidermidis ATCC 12228
[53] = test system: Staphylococcus xylosus
[54] = test system: Vibrio parahaemolyticus CCRC 10806
[55] = test system: Candida albicans ATCC 90028
[56] = test system: Enterobacter cloacae NHTCC 53001
[57] = test system: Klebsiella pneumoniae KK3 9904
[58] = test system: Staphylococcus aureus NCTC 8325

MIC [1]: ≥ 200 µM
MIC [2]: ≥ 50.1 µM
MIC [3]: ≥ 100 µM
MIC [4]: ≥ 50.1 µM
MIC [5]: 16 µM (≈ 23.9 µg/mL)
MIC [6]: 200 µM (≈ 300 µg/mL)
MIC [7]: ≥ 32 µM
MIC [8]: ≥ 100 µM
MIC [9]: ≥ 401 µM
MIC [10]: ≥ 64 µM
MIC [11]: ≥ 401 µM
MIC [12]: > 401 µM
MIC [13]: 128 µM (≈ 191 µg/mL)
MIC [14]: ≥ 200 µM
MIC [15]: 200 µM (≈ 300 µg/mL)
MIC [16]: ≥ 200 µM
MIC [17]: 2 µM (≈ 2.99 µg/mL)
MIC [18]: 4 µM (≈ 5.98 µg/mL)
Structure (SMILES): CC[C@H](C)[C@H](NC(=O)[C@H](CC(C)C)NC(=O)[C@@H]1CCCN1C(=O)[C@H](CC(C)C)NC(=O)[C@@H](N)Cc1ccccc1)C(=O)N[C@@H](CC(C)C)C(=O)N[C@@H](CCCN=C(N)N)C(=O)N[C@@H](CCCCN)C(=O)N[C@H](C(=O)N[C@H](C(=O)N[C@H](C(=O)N[C@@H](C)C(=O)N[C@@H](CC(C)C)C(N)=O)[C@@H](C)O)C(C)C)[C@@H](C)CC [FLPLILRKIVTAL]

MIC [19]: 0.9 µM (≈ 1.31 µg/mL)
MIC [20]: ≥ 40 µM and 25 µM and 30 µM
MIC [21]: 30 µM and 15 µM and 20 µM
MIC [22]: 30 µM and 15 µM
MIC [23]: 1.8 µM (≈ 2.61 µg/mL)
MIC [24]: 16.3 µM (≈ 23.6 µg/mL)
MIC [25]: 8.4 µM (≈ 12.2 µg/mL)
Structure (SMILES): CC[C@H](C)[C@H](NC(=O)[C@H](CC(C)C)NC(=O)[C@H](Cc1cnc[nH]1)NC(=O)CNC(=O)[C@H](CC(C)C)NC(=O)[C@@H](NC(=O)[C@H](CCCCN)NC(=O)[C@H](CCCCN)NC(=O)[C@H](Cc1c[nH]c2ccccc12)NC(=O)[C@H](CCSC)NC(=O)CN)[C@@H](C)CC)C(=O)N[C@@H](CCCN=C(N)N)C(N)=O [GMWKKILGHLIR]

MIC [26]: 1.05 µM and 1.24 µM
MIC [27]: 1.94 µM (≈ 3.13 µg/mL)
MIC [28]: ≥ 79.4 µM
MIC [29]: 4.96 µM (≈ 8 µg/mL)
MIC [30]: 15.5 µM (≈ 25 µg/mL)
MIC [31]: 1.75 µM (≈ 2.83 µg/mL)
MIC [32]: 1.94 µM (≈ 3.13 µg/mL)
MIC [33]: 6.63 µM (≈ 10.7 µg/mL)
MIC [34]: 12.5 µM (≈ 20.2 µg/mL)
MIC [35]: ≥ 79.4 µM
MIC [36]: 31 µM (≈ 50 µg/mL)
MIC [37]: 3.51 µM (≈ 5.65 µg/mL)
MIC [38]: 0.62 µM (≈ 0.999 µg/mL)
MIC [39]: 7.75 µM (≈ 12.5 µg/mL)
MIC [40]: ≥ 39.7 µM
MIC [41]: > 15.5 µM
MIC [42]: ≥ 79.4 µM
MIC [43]: 19.8 µM (≈ 32 µg/mL)
MIC [44]: 19.8 µM (≈ 32 µg/mL)
MIC [45]: 3.87 µM (≈ 6.25 µg/mL)
MIC [46]: 3.87 µM (≈ 6.25 µg/mL)
MIC [47]: 15.5 µM (≈ 25 µg/mL)
MIC [48]: 3.1 µM (≈ 5 µg/mL)
MIC [49]: 9.92 µM (≈ 16 µg/mL)
MIC [50]: 14 µM (≈ 22.6 µg/mL)
MIC [51]: 7.75 µM (≈ 12.5 µg/mL)
MIC [25]: 8.25 µM (≈ 13.3 µg/mL)
MIC [52]: 3.87 µM (≈ 6.25 µg/mL)
MIC [53]: 0.31 µM (≈ 0.5 µg/mL)
Structure (SMILES): CC[C@H](C)[C@H](NC(=O)[C@H](CO)NC(=O)[C@H](CCCCN)NC(=O)[C@H](CC(C)C)NC(=O)[C@H](CCCCN)NC(=O)[C@@H](N)CC(C)C)C(=O)N[C@H](C(=O)N[C@@H](CO)C(=O)N[C@@H](Cc1c[nH]c2ccccc12)C(=O)N[C@@H](C)C(=O)N[C@@H](CCCCN)C(=O)N[C@@H](CCCCN)C(=O)N[C@H](C(=O)N[C@@H](CC(C)C)C(N)=O)C(C)C)C(C)C [LKLKSIVSWAKKVL]
MIC [54]: 7.01 µM (≈ 11.3 µg/mL)

MIC [55]: ≥ 100 µM
MIC [56]: 3 µM (≈ 11.5 µg/mL)
MIC [6]: 3 µM (≈ 11.5 µg/mL)
MIC [57]: 6 µM (≈ 23 µg/mL)
MIC [12]: 3 µM (≈ 11.5 µg/mL)
MIC [58]: 25 µM (≈ 96 µg/mL)
Structure (SMILES): CC[C@H](C)[C@@H]1NC(=O)[C@H](CCCCN)NC(=O)[C@@H](NC(=O)[C@H](CCCCN)NC(=O)[C@H](C)NC(=O)[C@H](CCC(N)=O)NC(=O)[C@H](CC(=O)O)NC(=O)[C@H](CC(C)C)NC(=O)[C@H](CC(C)C)NC(=O)[C@H](CO)NC(=O)CNC(=O)CNC(=O)[C@@H](NC(=O)[C@H](CC(N)=O)NC(=O)[C@H](CCCCN)NC(=O)[C@H](Cc2ccccc2)NC(=O)[C@@H](NC(=O)[C@H](Cc2cnc[nH]2)NC(=O)[C@H](CCCCN)NC(=O)CNC(=O)[C@@H](NC(=O)[C@@H](NC(=O)[C@H](CCCCN)NC(=O)[C@H](CC(C)C)NC(=O)[C@@H](NC(=O)CNC(=O)[C@H](CCCCN)NC(=O)[C@H](CC(C)C)NC(=O)[C@@H](NC(=O)[C@H](CO)NC(=O)[C@H](CC(C)C)NC(=O)[C@H](CC(C)C)NC(=O)CN)C(C)C)C(C)C)[C@@H](C)O)[C@@H](C)O)[C@@H](C)CC)C(C)C)CSSC[C@@H](C(=O)O)NC(=O)[C@H](CCC(N)=O)NC(=O)CNC(=O)[C@H](CO)NC1=O [GLLSVLKGVLKTTGKHIFKNVGGSLLDQAKCKISGQC]
